Calls of active or inactive are those of the source. No cut-off for these calls is given here.
How the values were obtained:
[1] = target: T1, Transcriptional enhancer factor TEF-3 (Homo sapiens, UniProt Q15561); assay: Inhibition of N-terminal His6 tagged human TEAD4-YBD (217 to 434 residues) expressed in Escherichia coli C43 (DE3) cells assessed as reduction in autopalmitoylation at 200 nM preincubated for 2 hrs followed by palmitoyl alkyne-coenzyme A addition and measured after 30 mins immunoblot analysis relative to control
T1 sequence (Q15561 whole entry, the tested form may be a part): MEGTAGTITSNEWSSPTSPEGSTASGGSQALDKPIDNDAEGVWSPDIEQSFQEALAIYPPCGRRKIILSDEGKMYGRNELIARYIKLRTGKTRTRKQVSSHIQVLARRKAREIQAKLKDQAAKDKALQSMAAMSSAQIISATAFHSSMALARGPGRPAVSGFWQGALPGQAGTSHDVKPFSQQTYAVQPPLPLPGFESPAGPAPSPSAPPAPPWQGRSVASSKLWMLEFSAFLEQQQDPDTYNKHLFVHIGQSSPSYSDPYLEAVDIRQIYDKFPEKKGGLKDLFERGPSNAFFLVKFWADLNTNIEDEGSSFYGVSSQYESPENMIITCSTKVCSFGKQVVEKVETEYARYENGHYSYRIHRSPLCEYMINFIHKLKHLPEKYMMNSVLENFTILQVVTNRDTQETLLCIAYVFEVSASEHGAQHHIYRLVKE

[2] = target: T1, Transcriptional enhancer factor TEF-3; assay: Binding affinity to N-terminal His6 tagged human TEAD4-YBD (217 to 434 residues) expressed in Escherichia coli C43 (DE3) cells assessed as covalent modification at Cys367 residue by HPLC-MS/MS analysis
[3] = GSH reactivity in PBS assessed as GSH adduct formation at 1 mM after 8 hrs by UPLC-MS analysis; format: physicochemical; details: buffer, 1000 µM
[4] = target: Fatty acid-binding protein 5 (Homo sapiens) (UniProt Q01469); assay: Binding affinity to FABP5 (unknown origin) at 1:1 ratio by fluorescence based thermal shift assay
Fatty acid-binding protein 5 (Homo sapiens), sequence (Q01469 whole entry, the tested form may be a part): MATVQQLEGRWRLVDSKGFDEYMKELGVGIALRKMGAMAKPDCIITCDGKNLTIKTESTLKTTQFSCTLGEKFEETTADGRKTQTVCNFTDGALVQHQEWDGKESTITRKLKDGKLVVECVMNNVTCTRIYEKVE

[5] = target: T1, Transcriptional enhancer factor TEF-3; assay: Inhibition of human HEK293T cells derived YAP interaction with N-terminal His-tagged human TEAD4 YBD domain (217 to 434 residues) expressed in Escherichia coli C43 (DE3) cells at 25 to 200 uM incubated for 2 hrs with TEAD4 followed by YAP lysate addition and measured after 4 hrs by immunoblotting analysis
[6] = target: LIM domain kinase 1 (Homo sapiens) (UniProt P53667); assay: Inhibition of recombinant human LIMK1 (285 to 638 residues) at 10 uM using cofilin as substrate measured after 40 mins in presence of [gamm33P]ATP by scintillation counting method relative to control
LIM domain kinase 1 (Homo sapiens), sequence (P53667 whole entry, looked up, the tested form may be a part): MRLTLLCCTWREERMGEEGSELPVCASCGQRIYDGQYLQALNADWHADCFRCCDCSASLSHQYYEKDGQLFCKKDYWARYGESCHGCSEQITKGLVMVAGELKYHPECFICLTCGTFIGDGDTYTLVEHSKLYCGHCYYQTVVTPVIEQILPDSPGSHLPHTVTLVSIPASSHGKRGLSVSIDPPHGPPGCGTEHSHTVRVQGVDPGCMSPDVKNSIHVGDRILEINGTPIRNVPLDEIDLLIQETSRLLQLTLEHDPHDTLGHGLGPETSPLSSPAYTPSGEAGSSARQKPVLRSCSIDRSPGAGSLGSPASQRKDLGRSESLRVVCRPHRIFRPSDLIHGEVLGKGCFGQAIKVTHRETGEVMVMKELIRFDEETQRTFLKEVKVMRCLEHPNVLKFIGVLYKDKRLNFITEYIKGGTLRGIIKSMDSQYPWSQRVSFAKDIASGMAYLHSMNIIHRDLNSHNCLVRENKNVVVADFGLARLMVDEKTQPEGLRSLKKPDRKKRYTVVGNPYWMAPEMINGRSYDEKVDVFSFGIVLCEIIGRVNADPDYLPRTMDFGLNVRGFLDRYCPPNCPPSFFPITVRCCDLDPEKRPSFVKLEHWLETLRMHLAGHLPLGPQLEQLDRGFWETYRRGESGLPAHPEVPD

[7] = target: Vascular endothelial growth factor receptor 2 (Homo sapiens) (UniProt P35968); assay: Inhibition of recombinant human KDR (790 to end residues) at 10 uM using myelin basic protein as substrate measured after 40 mins in presence of [gamm33P]ATP by scintillation counting method relative to control
[8] = target: Tyrosine-protein kinase ITK/TSK (Homo sapiens) (UniProt Q08881); assay: Inhibition of recombinant human ITK (352 to 617 residues) at 10 uM using myelin basic protein as substrate measured after 40 mins in presence of [gamm33P]ATP by scintillation counting method relative to control
[9] = target: Insulin receptor-related protein (Homo sapiens) (UniProt P14616); assay: Inhibition of recombinant human IRR (943 to 1266 residues) at 10 uM using myelin basic protein as substrate measured after 40 mins in presence of [gamma33P]ATP by scintillation counting method relative to control
[10] = target: Tyrosine-protein kinase SYK (Homo sapiens) (UniProt P43405); assay: Inhibition of full length recombinant human Syk at 10 uM using poly(Glu, Tyr) 4:1 as substrate after 40 mins in presence of [gamma33P]ATP by scintillation counting method relative to control
[11] = target: SRSF protein kinase 1 (Homo sapiens) (UniProt Q96SB4); assay: Inhibition of recombinant human SRPK1 (2 to end residues) at 10 uM using RSRSRSRSRSRSRSR as substrate measured after 40 mins in presence of [gamma33P]ATP by scintillation counting method relative to control
SRSF protein kinase 1 (Homo sapiens), sequence (Q96SB4 whole entry): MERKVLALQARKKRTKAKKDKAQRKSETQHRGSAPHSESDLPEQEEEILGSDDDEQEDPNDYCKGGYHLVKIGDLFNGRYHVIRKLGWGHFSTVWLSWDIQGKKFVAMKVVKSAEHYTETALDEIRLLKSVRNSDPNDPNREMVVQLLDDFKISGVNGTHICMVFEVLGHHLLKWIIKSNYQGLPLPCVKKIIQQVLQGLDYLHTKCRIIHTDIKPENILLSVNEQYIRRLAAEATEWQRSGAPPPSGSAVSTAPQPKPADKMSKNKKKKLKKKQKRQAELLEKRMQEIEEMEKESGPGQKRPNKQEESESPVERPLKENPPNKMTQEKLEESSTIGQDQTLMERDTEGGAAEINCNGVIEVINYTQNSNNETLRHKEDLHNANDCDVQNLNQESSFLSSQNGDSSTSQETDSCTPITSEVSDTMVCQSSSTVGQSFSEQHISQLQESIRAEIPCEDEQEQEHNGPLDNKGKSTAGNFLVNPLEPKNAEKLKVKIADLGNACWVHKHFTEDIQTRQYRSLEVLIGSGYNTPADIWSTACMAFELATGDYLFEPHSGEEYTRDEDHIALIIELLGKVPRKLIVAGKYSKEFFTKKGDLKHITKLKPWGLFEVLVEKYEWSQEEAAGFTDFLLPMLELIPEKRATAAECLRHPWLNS

[12] = target: Ribosomal protein S6 kinase alpha-3 (Homo sapiens) (UniProt P51812); assay: Inhibition of full length recombinant human Rsk2 (2 to end residues) at 10 uM using KKKNRTLSVA as substrate after 40 mins in presence of [gamma33P]ATP by scintillation counting method relative to control
Ribosomal protein S6 kinase alpha-3 (Homo sapiens), sequence (P51812 whole entry): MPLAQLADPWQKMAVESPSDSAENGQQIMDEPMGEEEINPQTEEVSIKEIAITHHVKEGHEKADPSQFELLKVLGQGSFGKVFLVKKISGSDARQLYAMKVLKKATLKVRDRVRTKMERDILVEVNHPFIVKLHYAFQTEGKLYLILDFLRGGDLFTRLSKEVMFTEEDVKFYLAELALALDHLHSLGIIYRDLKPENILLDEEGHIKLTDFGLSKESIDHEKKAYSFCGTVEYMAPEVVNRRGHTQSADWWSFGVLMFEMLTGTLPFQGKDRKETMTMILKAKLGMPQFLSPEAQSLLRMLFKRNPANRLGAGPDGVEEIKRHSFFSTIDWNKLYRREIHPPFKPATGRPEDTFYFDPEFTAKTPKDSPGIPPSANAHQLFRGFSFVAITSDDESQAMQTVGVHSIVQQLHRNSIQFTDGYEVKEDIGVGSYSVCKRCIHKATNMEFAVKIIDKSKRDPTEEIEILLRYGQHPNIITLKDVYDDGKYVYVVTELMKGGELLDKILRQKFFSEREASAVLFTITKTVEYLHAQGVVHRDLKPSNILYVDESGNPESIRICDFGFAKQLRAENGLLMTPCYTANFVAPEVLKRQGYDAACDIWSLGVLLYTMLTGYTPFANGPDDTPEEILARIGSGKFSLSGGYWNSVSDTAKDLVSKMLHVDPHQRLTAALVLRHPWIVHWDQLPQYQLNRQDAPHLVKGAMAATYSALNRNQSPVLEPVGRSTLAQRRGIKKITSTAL

[13] = target: Serine/threonine-protein kinase PLK1 (Homo sapiens) (UniProt P53350); assay: Inhibition of full length recombinant human Plk1 at 10 uM using casein as substrate after 40 mins in presence of [gamma33P]ATP by scintillation counting method relative to control
Serine/threonine-protein kinase PLK1 (Homo sapiens), sequence (P53350 whole entry): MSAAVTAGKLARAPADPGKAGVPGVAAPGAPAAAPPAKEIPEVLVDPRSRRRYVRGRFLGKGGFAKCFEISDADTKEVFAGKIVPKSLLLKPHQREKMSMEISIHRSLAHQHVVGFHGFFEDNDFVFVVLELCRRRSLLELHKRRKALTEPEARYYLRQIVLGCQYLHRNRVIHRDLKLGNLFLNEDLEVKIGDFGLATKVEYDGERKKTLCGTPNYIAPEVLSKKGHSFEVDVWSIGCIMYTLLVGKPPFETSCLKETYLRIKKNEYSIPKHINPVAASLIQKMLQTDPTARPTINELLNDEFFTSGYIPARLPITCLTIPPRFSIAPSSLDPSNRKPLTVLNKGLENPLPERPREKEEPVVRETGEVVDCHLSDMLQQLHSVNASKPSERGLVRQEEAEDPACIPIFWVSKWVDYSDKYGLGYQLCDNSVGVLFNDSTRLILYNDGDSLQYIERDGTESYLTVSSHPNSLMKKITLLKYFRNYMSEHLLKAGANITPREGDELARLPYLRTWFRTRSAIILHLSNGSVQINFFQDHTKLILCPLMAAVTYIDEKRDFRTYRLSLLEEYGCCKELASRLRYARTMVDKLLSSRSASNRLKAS

[14] = target: Inhibitor of nuclear factor kappa-B kinase subunit epsilon (Homo sapiens) (UniProt Q14164); assay: Inhibition of full length recombinant human IKKepsilon at 10 uM using casein as substrate after 40 mins in presence of [gamma33P]ATP by scintillation counting method relative to control
Inhibitor of nuclear factor kappa-B kinase subunit epsilon (Homo sapiens), sequence (Q14164 whole entry, the tested form may be a part): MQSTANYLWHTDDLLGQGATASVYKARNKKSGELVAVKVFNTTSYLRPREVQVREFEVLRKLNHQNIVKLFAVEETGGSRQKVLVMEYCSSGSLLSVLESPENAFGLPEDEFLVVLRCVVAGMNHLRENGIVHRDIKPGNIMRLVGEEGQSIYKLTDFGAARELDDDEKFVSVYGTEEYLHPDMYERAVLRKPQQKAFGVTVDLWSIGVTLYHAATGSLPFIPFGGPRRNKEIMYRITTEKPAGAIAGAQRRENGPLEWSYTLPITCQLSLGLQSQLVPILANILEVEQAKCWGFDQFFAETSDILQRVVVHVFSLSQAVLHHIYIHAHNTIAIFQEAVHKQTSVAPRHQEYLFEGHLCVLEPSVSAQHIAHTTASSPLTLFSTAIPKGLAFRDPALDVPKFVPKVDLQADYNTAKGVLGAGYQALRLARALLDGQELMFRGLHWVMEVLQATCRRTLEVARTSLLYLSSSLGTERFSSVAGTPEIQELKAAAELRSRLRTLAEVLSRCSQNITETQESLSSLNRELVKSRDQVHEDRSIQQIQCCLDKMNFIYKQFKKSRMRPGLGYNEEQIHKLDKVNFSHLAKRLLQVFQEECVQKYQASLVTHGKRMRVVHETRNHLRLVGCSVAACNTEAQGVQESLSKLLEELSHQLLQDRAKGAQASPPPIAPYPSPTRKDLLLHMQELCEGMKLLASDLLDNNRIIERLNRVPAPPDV

[15] = target: Tyrosine-protein kinase HCK (Homo sapiens) (UniProt P08631); assay: Inhibition of recombinant human Hck activated (230 to 497 residues) at 10 uM using GGMEDIYFEFMGGKKK as substrate after 40 mins in presence of [gamma33P]ATP by scintillation counting method relative to control
[16] = tested on: Ribosomal protein S6 kinase beta-1 (Homo sapiens), P23443 [T412E]; assay: Inhibition of recombinant human p70S6K T412E mutant (1 to 421 residues) at 10 uM using KKRNRTLTV as substrate measured after 40 mins in presence of [gamma33P]ATP by scintillation counting method relative to control
[17] = target: Cyclin-dependent kinase-like 4 (Homo sapiens) (UniProt Q5MAI5); assay: Inhibition of human CDKL4 at 10 uM by radiometric method relative to control
[18] = target: CDK9/cyclin T1 (Homo sapiens) (UniProt O60563+P50750); assay: Inhibition of recombinant full length human CDK9/cyclinT1 at 10 uM using KTFCGTPEYLAPEVRREPRILSEEEQEMFRDFDYIADWC as substrate measured after 40 mins in presence of [gamma33P]ATP by scintillation counting method relative to control; format: protein-complex assay
[19] = target: CDK4/Cyclin D3 (Homo sapiens) (UniProt P11802+P30281); assay: Inhibition of recombinant full-length human CDK4/cyclinD3 at 10 uM using Rb fragment as substrate measured after 40 mins in presence of [gamma33P]ATP by scintillation counting method relative to control; format: protein-complex assay
[20] = target: Cyclin-dependent kinase 1/cyclin B1 (Homo sapiens) (UniProt P06493+P14635); assay: Inhibition of full-length recombinant human CDK1/cyclinB at 10 uM using histone H1 as substrate after 40 mins by in presence of [gamma33P]ATP by scintillation counting method relative to control; format: protein-complex assay
Cyclin-dependent kinase 1/cyclin B1 (Homo sapiens), sequence (P06493 whole entry, looked up): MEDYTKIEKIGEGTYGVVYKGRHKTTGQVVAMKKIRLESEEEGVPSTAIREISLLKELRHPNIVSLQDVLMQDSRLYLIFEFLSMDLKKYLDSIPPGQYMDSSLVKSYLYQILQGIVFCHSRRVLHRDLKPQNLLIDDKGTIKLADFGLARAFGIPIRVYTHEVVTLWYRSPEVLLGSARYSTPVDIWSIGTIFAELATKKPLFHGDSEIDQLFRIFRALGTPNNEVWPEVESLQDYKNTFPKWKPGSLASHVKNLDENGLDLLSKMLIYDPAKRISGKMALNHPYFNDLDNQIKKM
Cyclin-dependent kinase 1/cyclin B1 (Homo sapiens), sequence (P14635 whole entry, looked up): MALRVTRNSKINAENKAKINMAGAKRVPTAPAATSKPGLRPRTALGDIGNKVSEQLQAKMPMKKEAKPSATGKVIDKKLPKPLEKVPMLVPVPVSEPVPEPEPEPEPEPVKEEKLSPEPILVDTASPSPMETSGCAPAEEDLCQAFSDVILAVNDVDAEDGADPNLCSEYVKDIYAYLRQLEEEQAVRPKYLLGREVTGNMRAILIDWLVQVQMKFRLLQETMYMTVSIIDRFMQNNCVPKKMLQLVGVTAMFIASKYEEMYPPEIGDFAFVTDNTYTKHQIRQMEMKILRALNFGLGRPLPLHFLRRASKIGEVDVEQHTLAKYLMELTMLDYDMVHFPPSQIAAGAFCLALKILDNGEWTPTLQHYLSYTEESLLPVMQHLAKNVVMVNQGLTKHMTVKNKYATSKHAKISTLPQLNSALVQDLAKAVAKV

[21] = target: Cytoplasmic tyrosine-protein kinase BMX (Homo sapiens) (UniProt P51813); assay: Inhibition of full-length recombinant human BMX at 10 uM using poly(Glu, Tyr) 4:1 as substrate measured after 40 mins in presence of [gamma33P]ATP by scintillation counting method relative to control
[22] = target: Serine-protein kinase ATM (Homo sapiens) (UniProt Q13315); assay: Inhibition of recombinant full-length human ATM at 10 uM using GST-cMyc-p53 as substrate measured after 40 mins by ELISA method relative to control
[23] = tested on: Angiopoietin-1 receptor (Homo sapiens), Q02763 [Q939H,Q940H]; assay: Inhibition of human Tie2 Q939H/Q940H mutant (771 to end residues) at 10 uM using poly(Glu, Tyr) 4:1 as substrate measured after 40 mins in presence of [gamma33P]ATP by scintillation counting method relative to control
[24] = target: DNA (cytosine-5)-methyltransferase 1 (Homo sapiens) (UniProt P26358); assay: Inhibition of human DNMT1 at 10 uM after 1 hr by radioisotope-based assay relative to control
[25] = target: Myosin light chain kinase, smooth muscle (Homo sapiens) (UniProt Q15746); assay: Inhibition of recombinant human MLCK (1425 to 1771 residues) at 10 uM using […] as substrate measured after 40 mins in presence of [gamma33P]ATP by scintillation counting method relative to control

Q: Which results are given for `C=CS(=O)(=O)Nc1ccc(Cc2ccc3ccccc3c2)cc1`?
A: inhibition [1]: 72.5%; Activity [2]: Active; Activity [3]: Not Active; Activity [4]: Active; inhibition [5]: Active; inhibition [6]: -1%; inhibition [7]: 2%; inhibition [8]: 6%; inhibition [9]: 13%; inhibition [10]: -4%; inhibition [11]: 8%; inhibition [12]: -3%; inhibition [13]: -10%; inhibition [14]: 5%; inhibition [15]: 3%; inhibition [16]: 9%; inhibition [17]: -6%; inhibition [18]: 3%; inhibition [19]: 11%; inhibition [20]: 4%; inhibition [21]: 19%; inhibition [22]: 2%; inhibition [23]: 18%; inhibition [24]: 15%; inhibition [25]: 5%
